system: recombinant PTTS; experiment: Substrate specificity of recombinant PTTS; type: biochemical, Picrophilus torridus; settings: standard assay conditions
Description: (§1) The activity of PTTS was assayed by measuring the amount of trehalose produced from maltose. The standard reaction was performed by adding 1.5 μL purified enzyme into 50 μL reaction solution containing 50 mM sodium phosphate (pH 6.0) and 150 mM maltose and incubating in a 45° C. water bath for 25 min. The assay time was under the linear range of enzyme reaction. The reaction was terminated by heating the mixture in boiling water for 15 min. One unit of enzyme activity was defined as the amount of enzyme that catalyzes the formation of 1 μmol of trehalose per min. Kinetic analysis was performed under conditions of pH 6.0 and 45° C. for 5 min in 50 mM sodium phosphate buffer containing substrate (maltose, trehalose, or maltose plus a constant 10 mM of glucose) at various concentrations. The resulting data were analyzed offline with Origin 6.0 software (Microcal, Northampton, Mass.). All experiments were carried out in duplicate or triplicate.
(§2) The amount of trehalose, glucose, and maltose after each enzymatic reaction was measured using a high performance liquid chromatography (HPLC) (SFD 2100) system equipped with an RI detector (Schambeck S F D, RI 2000) at a flow rate of 0.9 mL/min. A carbohydrate analysis column (HYPERSIL-100 Amino, Thermo Hypersil-Keystone) equilibrated with 75% acetonitrile, 24% Milli-Q water, and 1% formic acid was used. The retention times of glucose, maltose, and trehalose were 8.0, 11.2, and 12.5 min, respectively.
Substrate Specificity of Recombinant PTTS. […] It also acted on sucrose and catalyzed the formation of glucose, fructose, and trehalulose [α-D-glucopyranosyl-(1,1)-D-fructofuranose], however, the activity is quite low. In addition, it converted the α,β-1,1-trehalose to maltose, though only about 7% just as with the α,α-1,1-trehalose.

| Molecule | activity of recombinant PTTS with the substance as substrate | conversion to maltose relative to α,α-1,1-trehalose |
| --- | --- | --- |
| OC[C@H]1O[C@@](CO)(O[C@H]2O[C@H](CO)[C@@H](O)[C@H](O)[C@H]2O)[C@@H](O)[C@@H]1O [sucrose] | quite low |  |
| OC[C@H]1O[C@@H](O[C@@H]2O[C@H](CO)[C@@H](O)[C@H](O)[C@H]2O)[C@H](O)[C@@H](O)[C@@H]1O [β,β-1,1-trehalose] | No detectable activities |  |
| OC[C@H]1O[C@H](O[C@H]2[C@H](O)[C@@H](O)[C@H](O)O[C@@H]2CO)[C@H](O)[C@@H](O)[C@@H]1O [maltose] | converted them to each other |  |
| OC[C@@H](O)[C@@H](O)[C@H](O)[C@@H](O)CO [sorbitol] | No detectable activities |  |
| OC[C@H]1O[C@@H](O[C@H]2O[C@H](CO)[C@@H](O)[C@H](O)[C@H]2O)[C@H](O)[C@@H](O)[C@@H]1O [α,β-1,1-trehalose] |  | about 7% |
| OC[C@H]1O[C@H](OC[C@H]2OC(O)(CO)[C@@H](O)[C@@H]2O)[C@H](O)[C@@H](O)[C@@H]1O (stereo partly shown) [isomaltulose] | No detectable activities |  |
| O=C[C@H](O)[C@@H](O)[C@@H](O)[C@H](O)CO [galactose] | No detectable activities |  |
| maltotriose | No detectable activities |  |
| O=C(CO)[C@@H](O)[C@H](O)[C@H](O)CO [fructose] | No detectable activities |  |
| OC[C@H]1O[C@H](O[C@H]2[C@H](O)[C@@H](O)[C@@H](O[C@H]3[C@H](O)[C@@H](O)[C@@H](O[C@H]4[C@H](O)[C@@H](O)[C@@H](O[C@H]5[C@H](O)[C@@H](O)C(O)O[C@@H]5CO)O[C@@H]4CO)O[C@@H]3CO)O[C@@H]2CO)[C@H](O)[C@@H](O)[C@@H]1O (stereo partly shown) [maltopentose] | No detectable activities |  |
| OC[C@H]1O[C@H](O[C@H]2[C@H](O)[C@@H](O)[C@@H](O[C@H]3[C@H](O)[C@@H](O)[C@@H](O[C@H]4[C@H](O)[C@@H](O)C(O)O[C@@H]4CO)O[C@@H]3CO)O[C@@H]2CO)[C@H](O)[C@@H](O)[C@@H]1O (stereo partly shown) [maltotetraose] | No detectable activities |  |
| OC[C@H]1O[C@H](O[C@H]2O[C@H](CO)[C@@H](O)[C@H](O)[C@H]2O)[C@H](O)[C@@H](O)[C@@H]1O [trehalose, α-D-glucopyranosyl α-D-glucopyranoside] | converted them to each other |  |
| OC[C@H]1O[C@@H](O[C@H]2[C@H](O)[C@@H](O)C(O)O[C@@H]2CO)[C@H](O)[C@@H](O)[C@H]1O (stereo partly shown) [lactose] | No detectable activities |  |

system: not listed separately; experiment: Enzyme assay: amount of trehalose produced from maltose by PTTS; type: biochemical, Picrophilus torridus; settings: PTTS without His-tag
Description: as §1, §2

| Molecule | specific activity relative to the recombinant His-tag fusion PTTS |
| --- | --- |
| native PTTS: Picrophilus torridus trehalose synthase protein without the linker and hexahistidine tag (SEQ ID NO: 3) (protein, listed as Picrophilus torridus) MLDNNGLWYRDAVFYEVPVKSFYDSNNDGIGDFNGLTMKLDYLKKLGVDALWLLPFYKSPLKDDGYDISDYYSILPEYGTIDDFKNFIDTAHSMNIRVIADLVLNHVSDQHPWFIESRSSIDNPKRDWFIWSDTPEKFKEARIIFIDTEKSNWTYDPETKQYYFHRFYSSQPDLNYDNPDVRNEVKKVIRYWLDLGLDGFRADAVPYLFKRENTNCENLPETHNFFKEIRKMMDEDYPGTILLAEANQWPTETKAYFGNGDEFHMAFNFPLMPRIFIALARSDYYPIMDIIKQTLPIPDNCDWCIFLRNHDELTLEMVTDSERDIMYREYAKIPKMRLNLGIRRRLAPLADNDINTIELLNALIFSLPGTPIIYYGDEIGMGDNIYLGDRNGVRTPMQWSYDRNAGFSMADSEQLYSPVITNPNYHYESVNVEAELRLSSSLLNWMIKIIHVRKDYKELLGRGSIKFIEQGNKRVLSYIREYENQRMLCLFNLSRNPTYVELNLSDYIGLKPIEAITKAAFPRIKDDRYFITMTPRSFFWFNLIVPERDDSYDLIGED | about 1.3 fold |

system: PTTS; experiment: Effects of metal ions and reagents on PTTS activity; type: biochemical, Picrophilus torridus; settings: 1 mM metal ion or reagent, standard assay conditions
Description: as §1
Effects of Metal Ions and Reagents on PTTS Activity. The effects of metal ions and reagents were determined by examining enzyme activity in the presence of 1 mM and 10 mM metal ions or reagents under standard assay conditions (FIG. 8).

| Molecule | inhibition of enzyme activity |
| --- | --- |
| NC(CO)(CO)CO [Tris] | moderately |
| [Cu+2] [Cu^2+] | moderately |
| [Hg+2] [Hg^2+] | inhibited strongly |
| [Pb+2] [Pb^2+] | moderately |
| [Al+3] [Al^3+] | inhibited strongly |
| [Cd+2] [Cd^2+] | moderately |
| CCCCCCCCCCCCOS(=O)(=O)[O-].[Na+] [SDS] | inhibited strongly |
| [Ag+] [Ag^+] | inhibited strongly |
